Test [1] addresses T1, Peptidyl-glycine alpha-amidating monooxygenase (Homo sapiens, UniProt P19021).
T1 sequence (P19021 whole entry): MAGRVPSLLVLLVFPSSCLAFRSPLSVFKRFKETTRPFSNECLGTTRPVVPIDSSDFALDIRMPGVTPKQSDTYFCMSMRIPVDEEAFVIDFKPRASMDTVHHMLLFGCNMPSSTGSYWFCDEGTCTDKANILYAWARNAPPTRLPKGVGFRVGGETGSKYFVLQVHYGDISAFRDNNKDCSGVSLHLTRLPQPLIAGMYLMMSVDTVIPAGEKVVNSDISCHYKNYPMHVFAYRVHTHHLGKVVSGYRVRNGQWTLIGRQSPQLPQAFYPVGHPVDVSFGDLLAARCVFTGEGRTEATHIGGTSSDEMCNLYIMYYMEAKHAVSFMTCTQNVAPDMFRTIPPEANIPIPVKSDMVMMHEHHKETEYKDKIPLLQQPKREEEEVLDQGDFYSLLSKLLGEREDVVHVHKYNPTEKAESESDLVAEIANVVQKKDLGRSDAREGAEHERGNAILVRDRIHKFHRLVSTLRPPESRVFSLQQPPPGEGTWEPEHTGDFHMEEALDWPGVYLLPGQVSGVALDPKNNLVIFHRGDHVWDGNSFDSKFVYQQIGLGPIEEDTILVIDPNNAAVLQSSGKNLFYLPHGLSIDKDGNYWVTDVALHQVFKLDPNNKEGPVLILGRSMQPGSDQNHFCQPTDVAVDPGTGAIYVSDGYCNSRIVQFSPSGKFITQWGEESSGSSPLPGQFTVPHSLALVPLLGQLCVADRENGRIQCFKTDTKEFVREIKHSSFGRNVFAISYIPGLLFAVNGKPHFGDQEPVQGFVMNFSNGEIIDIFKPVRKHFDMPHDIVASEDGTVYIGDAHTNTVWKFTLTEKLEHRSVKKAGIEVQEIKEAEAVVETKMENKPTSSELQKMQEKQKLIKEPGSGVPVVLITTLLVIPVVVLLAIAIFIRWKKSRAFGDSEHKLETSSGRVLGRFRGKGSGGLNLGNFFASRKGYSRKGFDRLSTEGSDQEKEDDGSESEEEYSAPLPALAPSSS
In words: Competitive inhibition of PAM in human DMS53 cells using as(R)-Tyr-(S)-Val-Gly as substrate after 2 hrs by HPLC analysis. In kind it is cell-based, DMS-53.

The target of test [2] is T1, Peptidyl-glycine alpha-amidating monooxygenase. The test can be described thus: Competitive inhibition of secreted PAM in human DMS53 cell culture medium using as(R)-Tyr-(S)-Val-Gly as substrate after 2 hrs by HPLC analysis. Also noted: species or system DMS-53.

In the case of `CC(=O)OCC(=O)O`, the IC50 in test [1] and in test [2] was 1.1 mM throughout.

What is called IC50 is the concentration at which inhibition is half-maximal. Read a high IC50 as weaker potency in that assay.

Values taken from ChEMBL document CHEMBL2203217, “Prohormone-substrate peptide sequence recognition by peptidylglycine α-amidating monooxygenase and its reflection in increased glycolate inhibitor potency” (Bioorg Med Chem Lett, 2012).
